According to the NIST ThermoML archive (doi:10.1021/je700599z):
Numbers after ± are expanded uncertainties.

Conditions: DTA

Glass transition temperature: -62.0 ± 3 °C
Compound: CCn1cc[n+](C)c1.NCC(=O)[O-] [1-ethyl-3-methylimidazolium ammonioacetate]
